{
  "source": "paper PMC9318729",
  "about": "(Toxins, 2022)",
  "key": {"A549 cells [1]": {"system": "A549 cells", "assay": "Effect of pathway inhibitors on Smp24-induced cytotoxicity (MTT and LDH release)", "assay_type": "cell-based, human", "details": "inhibitor pre-incubated 30 min (40 μM Necrostatin-1, 1 μM Cyclosporine A), then 5 μM Smp24 for 12 h", "protocol": "MTT assay was performed to analyze cellular viability as previously reported by us. […] […] After incubation, 10 µL MTT (5 mg/mL) was added before incubation for 4 h at 37 °C in the dark. Subsequently, the cell medium was discarded, and 200 µL DMSO was applied into each well before the absorbance value at 490 nm was determined via the microplate reader (Tecan Company, Männedorf, Switzerland). Cell proliferation was further detected by the BeyoClick™ EdU cell proliferation kit with Alexa Fluor 488 (Beyotime Institute of Biotechnology, Shanghai, China) according to the protocol of manufacturer. In brief, A549 cells (2 × 10^5 cells/well) were grown in 6-well plates and exposed to different concentrations of Smp24 (0, 1.25, 2.5 and 5 μM) for 24 h. Then, the cells were incubated with EdU for 2 h and stained with Alexa Fluor 488 for 30 min in the dark before cell fluorescence intensity was measured by flow cytometry (Becton Dickinson Company, Franklin Lakes, NJ, USA). The experiments had been performed in triplicate.\nThe LDH release assay was carried out with a commercial kit (Beyotime Institute of Biotechnology, Shanghai, China) following the manufacturer’s manual. […] Thereafter, a microplate reader (Tecan Company, Männedorf, Switzerland) was used to measure the absorbance value at 490 nm. […]"}, "A549 xenograft": {"system": "A549 xenograft", "assay": "A549 xenograft mice model, in vivo antitumor experiment", "design": "species or system BALB/c nude mice", "details": "2 mg/kg every three days for 18 days, n = 5", "protocol": "A total of 10 BALB/c nude mice of both sexes (18–20 g, 6 weeks) were acquired from the Laboratory Animal Center of Southern Medical University and were raised in a specific pathogen-free mini-barrier system of the central animal facility of Southern Medical University under controlled conditions (60% humidity, 21 ± 2 °C room temperature, and 12 h light-dark cycle). The experimental protocols (ethical approval number: L2019226 on 11 November 2019) involving animals were approved by the Animal Ethics Committee of Southern Medical University and were implemented in the light of the international regulations for animal research. The animals were placed in an induction chamber, and anesthesia was induced with 5% isoflurane before sacrificed by cervical dislocation.\nFirst, 5 × 10^6 A549 cells with viability over 90% were inoculated subcutaneously into the right flank per mouse. Tumor growth was examined daily by palpation and the diameter was measured with calipers in two planes. Tumor volumes were counted with the following formula: volume (mm^3) = (smallest diameter)^2 × (largest diameter)/2. Then, the mice were randomized into two groups (n = 5 mice/group) for physiological saline and Smp24 treatment. […] The body weight of mice and tumor volumes were recorded daily. […]"}, "H460 cells": {"system": "H460 cells", "assay": "MTT cell viability assay", "assay_type": "cell-based, human", "details": "24 h treatment", "protocol": "(§1) MTT assay was performed to analyze cellular viability as previously reported by us. Briefly, A549, H3122, PC-9, H460 and MRC-5 cells (1 × 10^4 cells/well) were grown in 96-well plates and exposed to the different concentrations of Smp24 (1.25–20 μM) with 24 h. […] After incubation, 10 µL MTT (5 mg/mL) was added before incubation for 4 h at 37 °C in the dark. Subsequently, the cell medium was discarded, and 200 µL DMSO was applied into each well before the absorbance value at 490 nm was determined via the microplate reader (Tecan Company, Männedorf, Switzerland). Cell proliferation was further detected by the BeyoClick™ EdU cell proliferation kit with Alexa Fluor 488 (Beyotime Institute of Biotechnology, Shanghai, China) according to the protocol of manufacturer. In brief, A549 cells (2 × 10^5 cells/well) were grown in 6-well plates and exposed to different concentrations of Smp24 (0, 1.25, 2.5 and 5 μM) for 24 h. Then, the cells were incubated with EdU for 2 h and stained with Alexa Fluor 488 for 30 min in the dark before cell fluorescence intensity was measured by flow cytometry (Becton Dickinson Company, Franklin Lakes, NJ, USA). The experiments had been performed in triplicate."}, "H3122 cells": {"system": "H3122 cells", "assay": "MTT cell viability assay", "assay_type": "cell-based, human", "details": "24 h treatment", "protocol": "as §1"}, "PC-9 cells": {"system": "PC-9 cells", "assay": "MTT cell viability assay", "assay_type": "cell-based, human", "details": "24 h treatment", "protocol": "as §1"}, "A549 cells [2]": {"system": "A549 cells", "assay": "MTT cell viability assay", "assay_type": "cell-based, human", "details": "24 h treatment", "protocol": "as §1"}, "MRC-5 cells": {"system": "MRC-5 cells", "assay": "MTT cell viability assay, normal cells", "assay_type": "cell-based", "details": "24 h treatment, mean ± SEM (n = 3), read-out: IC50 against MRC-5 normal cells", "protocol": "as §1"}, "Acute toxicity analysis": {"assay": "Acute toxicity analysis", "assay_type": "in vivo, mice", "details": "5 and 10 mg/kg intraperitoneal, 3 animals per group", "protocol": "To detect the acute toxicity of Smp24 in vivo, the mice were weighed and randomly divided into three groups with 3 animals each, and Smp24 (5 mg/kg and 10 mg/kg) and saline were intraperitoneally administered into mice of different groups. At 48 h after injection, serum and organ tissues from mice were collected for blood biochemical detection and organ weight measurement, respectively."}, "NSCLC tumor": {"system": "NSCLC tumor", "details": "subcutaneous injection, cited from earlier work", "protocol": "For most peptides, despite the cogent evidence about their antitumor effects in vitro, their clinical applications have met with major obstacles owing to several issues, including their non-specific cellular cytotoxicity and rapid degradation in the blood. In order to further verify the antitumor effects of Smp24 in vivo, a tumor-burdened experiment was carried out. […] Furthermore, it ..."}},
  "note": "Like-named read-outs stand apart in the source and are kept apart here. No end group written: not given here.",
  "data": [
    {"molecule": "CN1C(=O)C(Cc2c[nH]c3ccccc23)NC1=S", "note": "(stereo not shown) [Necrostatin-1]", "values": [
      {"measurement": "Inhibition of Smp24-induced cytotoxicity and necrosis of A549", "setting": "A549 cells [1]", "value": "can inhibit"}
    ]},
    {"molecule": "IWSFLIKAATKLLPSLFGGGKKDS [Smp24]", "values": [
      {"measurement": "Weight changes of body and organs (heart, lung, liver, spleen, kidney)", "setting": "A549 xenograft", "value": "did not affect"},
      {"measurement": "Selectivity index, H460", "setting": "H460 cells; normal cells MRC-5", "value": 2.07},
      {"measurement": "IC50", "setting": "H460 cells; MTT, mean ± SEM (n = 3), read-out: IC50 against H460 cells", "value": "~7.07", "unit": "µM"},
      {"measurement": "Selectivity index, H3122", "setting": "H3122 cells; normal cells MRC-5", "value": 3.16},
      {"measurement": "IC50", "setting": "H3122 cells; MTT, mean ± SEM (n = 3), read-out: IC50 against H3122 cells", "value": "~4.64", "unit": "µM"},
      {"measurement": "Selectivity index, PC-9", "setting": "PC-9 cells; normal cells MRC-5", "value": 2.32},
      {"measurement": "IC50", "setting": "PC-9 cells; MTT, mean ± SEM (n = 3), read-out: IC50 against PC-9 cells", "value": "~6.34", "unit": "µM"},
      {"measurement": "Selectivity index, A549", "setting": "A549 cells [2]; normal cells MRC-5", "value": 3.61},
      {"measurement": "IC50", "setting": "A549 cells [2]; MTT, mean ± SEM (n = 3), read-out: IC50 against A549 cells", "value": "~4.06", "unit": "µM"},
      {"measurement": "IC50", "setting": "MRC-5 cells", "value": "~14.7", "unit": "µM"},
      {"measurement": "Animal death after the first day's injection", "setting": "Acute toxicity analysis", "value": "no animal death"},
      {"measurement": "Heart, lung, liver, spleen and kidney weights", "setting": "Acute toxicity analysis; 48 h after injection", "value": "did not change significantly"},
      {"measurement": "Plasma AST, ALT, BUN and Cre", "setting": "Acute toxicity analysis; 48 h after injection", "value": "did not change significantly"}
    ]},
    {"molecule": "melittin", "values": [
      {"measurement": "Suppression of NSCLC tumor growth", "setting": "NSCLC tumor; 0.5 mg/kg", "value": 27, "unit": "%"},
      {"measurement": "Suppression of NSCLC tumor growth", "setting": "NSCLC tumor; 10 mg/kg", "value": 61, "unit": "%"}
    ]}
  ]
}
